According to ChEMBL document CHEMBL1201862, “PubChem BioAssay data set” (2004):
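These data come from cells grown in 96-well plates and exposed to compound for 48 hours at five concentrations. Here, GI50 denotes the concentration required for 50% inhibition of growth.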 The source made the active and inactive calls. Rule as the data show it: active = GI50 up to about 1.1 µM and inactive = higher.

Experiments:
Assay in all cases: growth of human tumour cells (NCI), 48 h
OVCAR-8 = system: OVCAR-8
LOX IMVI = system: LOX IMVI
HT-29 = system: HT-29
UO-31 = system: UO-31
SK-OV-3 = system: SK-OV-3
SN12C = system: SN12C
SNB-19 = system: SNB-19
KM12 = system: KM12
SW-620 = system: SW-620
A498 = system: A498
ACHN = system: ACHN
NCI-H460 = system: NCI-H460
HOP-62 = system: HOP-62
A549 = system: A549
U-251 = system: U-251
M14 = system: M14
SNB-75 = system: SNB-75
CCRF-CEM = system: CCRF-CEM
HCC 2998 = system: HCC 2998

Structure (SMILES) | GI50 (OVCAR-8) | GI50 (LOX IMVI) | GI50 (HT-29) | GI50 (UO-31) | GI50 (SK-OV-3) | GI50 (SN12C) | GI50 (SNB-19) | GI50 (KM12) | GI50 (SW-620) | GI50 (A498) | GI50 (ACHN) | GI50 (NCI-H460) | GI50 (HOP-62) | GI50 (A549) | GI50 (U-251) | GI50 (M14) | GI50 (SNB-75) | GI50 (CCRF-CEM) | GI50 (HCC 2998)
O=C(Nc1ccc(Cl)cc1Cl)C(=O)C(C(=O)c1ccc2ccccc2c1)C1OC(=O)c2ccccc21 (centres undefined) | 6.34 µM (inactive) | 5.19 µM (inactive) | 15.7 µM (inactive) | 11.4 µM (inactive) | 26.8 µM (inactive) | 11.7 µM (inactive) | 5.78 µM (inactive) | 15 µM (inactive) | 6.73 µM (inactive) | 6.7 µM (inactive) | 15.8 µM (inactive) | 4.33 µM (inactive) | 11.9 µM (inactive) | 8.32 µM (inactive) | 2.51 µM (inactive) | 13.4 µM (inactive) | – | – | –
Cn1cccc(C(=O)c2ccccc2)c1=O | > 100 µM (inactive) | > 100 µM (inactive) | > 100 µM (inactive) | > 100 µM (inactive) | > 100 µM (inactive) | > 100 µM (inactive) | > 100 µM (inactive) | > 100 µM (inactive) | > 100 µM (inactive) | – | > 100 µM (inactive) | > 100 µM (inactive) | > 100 µM (inactive) | > 100 µM (inactive) | > 100 µM (inactive) | > 100 µM (inactive) | > 100 µM (inactive) | > 100 µM (inactive) | > 100 µM (inactive)
Cc1c(/C=N/NC(=O)c2ccc(Cl)cc2)c(=O)n(-c2ccccc2)n1C | > 100 µM (inactive) | > 100 µM (inactive) | > 100 µM (inactive) | 95.5 µM (inactive) | > 100 µM (inactive) | > 100 µM (inactive) | > 100 µM (inactive) | > 100 µM (inactive) | > 100 µM (inactive) | – | > 100 µM (inactive) | > 100 µM (inactive) | > 100 µM (inactive) | > 100 µM (inactive) | > 100 µM (inactive) | > 100 µM (inactive) | > 100 µM (inactive) | > 100 µM (inactive) | > 100 µM (inactive)
O=C1Cc2ccccc2CCc2ccsc21 | > 100 µM (inactive) | > 100 µM (inactive) | > 100 µM (inactive) | > 100 µM (inactive) | > 100 µM (inactive) | > 100 µM (inactive) | > 100 µM (inactive) | > 100 µM (inactive) | > 100 µM (inactive) | > 100 µM (inactive) | – | > 100 µM (inactive) | – | > 100 µM (inactive) | > 100 µM (inactive) | > 100 µM (inactive) | 61.2 µM (inactive) | > 100 µM (inactive) | > 100 µM (inactive)
CC(CN(C)C)/C(=N\Nc1ccccc1)c1ccccc1 (centres undefined) | 12.7 µM (inactive) | 0.0456 µM (active) | 2.08 µM (inactive) | 1.13 µM (inactive) | 15.6 µM (inactive) | 3.19 µM (inactive) | 3.72 µM (inactive) | 0.0826 µM (active) | 0.142 µM (active) | 29.2 µM (inactive) | 0.242 µM (active) | 0.171 µM (active) | 0.767 µM (active) | 0.44 µM (active) | 1.07 µM (active) | 1.46 µM (inactive) | 13 µM (inactive) | 0.211 µM (active) | –
CC(=O)CC(=O)CCCC(=O)Nc1ccc(Cl)cc1Cl | > 100 µM (inactive) | > 100 µM (inactive) | > 100 µM (inactive) | > 100 µM (inactive) | > 100 µM (inactive) | > 100 µM (inactive) | > 100 µM (inactive) | > 100 µM (inactive) | > 100 µM (inactive) | – | > 100 µM (inactive) | > 100 µM (inactive) | > 100 µM (inactive) | > 100 µM (inactive) | – | > 100 µM (inactive) | > 100 µM (inactive) | – | > 100 µM (inactive)
Cc1ccc(S(=O)(=O)CC(=O)CC(=O)C(=O)Nc2cccc(C(F)(F)F)c2)cc1 | – | > 100 µM (inactive) | 55.3 µM (inactive) | > 100 µM (inactive) | > 100 µM (inactive) | > 100 µM (inactive) | > 100 µM (inactive) | > 100 µM (inactive) | > 100 µM (inactive) | – | > 100 µM (inactive) | – | – | > 100 µM (inactive) | > 100 µM (inactive) | > 100 µM (inactive) | 47.6 µM (inactive) | > 100 µM (inactive) | –
COc1cc2c(cc1OC)C(C(=O)O)C(c1ccccc1)N(C)C2=O (centres undefined) | > 100 µM (inactive) | – | > 100 µM (inactive) | > 100 µM (inactive) | > 100 µM (inactive) | > 100 µM (inactive) | > 100 µM (inactive) | > 100 µM (inactive) | > 100 µM (inactive) | > 100 µM (inactive) | > 100 µM (inactive) | > 100 µM (inactive) | > 100 µM (inactive) | > 100 µM (inactive) | > 100 µM (inactive) | > 100 µM (inactive) | > 100 µM (inactive) | > 100 µM (inactive) | > 100 µM (inactive)
CCN(CC)CCCCC1CCN(CC(=O)N2CC(C)C(=O)Nc3ccccc32)CC1 (centres undefined) | – | > 100 µM (inactive) | > 100 µM (inactive) | > 100 µM (inactive) | > 100 µM (inactive) | > 100 µM (inactive) | > 100 µM (inactive) | – | > 100 µM (inactive) | > 100 µM (inactive) | > 100 µM (inactive) | > 100 µM (inactive) | > 100 µM (inactive) | > 100 µM (inactive) | > 100 µM (inactive) | > 100 µM (inactive) | – | > 100 µM (inactive) | > 100 µM (inactive)
O=C(CBr)N1CCC2(CC1)SSC1(CCN(C(=O)CBr)CC1)S2 | 1.93 µM (inactive) | 0.064 µM (active) | 1.81 µM (inactive) | 0.593 µM (active) | 1.41 µM (inactive) | 1.93 µM (inactive) | 1.58 µM (inactive) | 1.7 µM (inactive) | 0.332 µM (active) | – | 1.54 µM (inactive) | 1.81 µM (inactive) | 1.9 µM (inactive) | 1.98 µM (inactive) | 1.59 µM (inactive) | 1.53 µM (inactive) | 2.01 µM (inactive) | 0.15 µM (active) | –
CCOC1(COP(=O)(OCc2ccccc2)OCc2ccccc2)COC(COP(=O)(OCc2ccccc2)OCc2ccccc2)(OCC)CO1 (centres undefined) | 59 µM (inactive) | > 100 µM (inactive) | > 100 µM (inactive) | – | > 100 µM (inactive) | > 100 µM (inactive) | > 100 µM (inactive) | > 100 µM (inactive) | > 100 µM (inactive) | – | 7.82 µM (inactive) | 95.7 µM (inactive) | > 100 µM (inactive) | 9.02 µM (inactive) | > 100 µM (inactive) | > 100 µM (inactive) | – | > 100 µM (inactive) | > 100 µM (inactive)
CCOC(=O)C1=C(C)N(c2ccccc2)C2=C(C(=O)N(c3ccccc3)C2c2ccccc2)C1c1ccccc1 (centres undefined) | > 100 µM (inactive) | > 100 µM (inactive) | > 100 µM (inactive) | > 100 µM (inactive) | > 100 µM (inactive) | > 100 µM (inactive) | > 100 µM (inactive) | > 100 µM (inactive) | > 100 µM (inactive) | – | > 100 µM (inactive) | > 100 µM (inactive) | > 100 µM (inactive) | > 100 µM (inactive) | > 100 µM (inactive) | > 100 µM (inactive) | > 100 µM (inactive) | > 100 µM (inactive) | > 100 µM (inactive)
O=C(Nc1ccc(Nc2ccc(NC(=O)c3ccccc3)c3c2C(=O)c2ccccc2C3=O)c2c1C(=O)c1ccccc1C2=O)c1ccccc1 | > 100 µM (inactive) | – | – | > 100 µM (inactive) | > 100 µM (inactive) | > 100 µM (inactive) | > 100 µM (inactive) | > 100 µM (inactive) | > 100 µM (inactive) | > 100 µM (inactive) | > 100 µM (inactive) | > 100 µM (inactive) | > 100 µM (inactive) | > 100 µM (inactive) | > 100 µM (inactive) | > 100 µM (inactive) | 35.6 µM (inactive) | > 100 µM (inactive) | > 100 µM (inactive)
Cc1ccc([N+]2=NC(c3ccc([N+](=O)[O-])cc3)=NN(c3ccccc3)C2)cc1 | 42.1 µM (inactive) | 60 µM (inactive) | 57.9 µM (inactive) | 86.7 µM (inactive) | – | > 100 µM (inactive) | 75.3 µM (inactive) | – | > 100 µM (inactive) | 95.9 µM (inactive) | > 100 µM (inactive) | 41 µM (inactive) | > 100 µM (inactive) | > 100 µM (inactive) | 72.8 µM (inactive) | – | – | 24.3 µM (inactive) | > 100 µM (inactive)
CCN(CC)CCOC(=O)/C(=C/c1ccc(OC)cc1)c1cc(OC)c(OC)c(OC)c1 | 15.5 µM (inactive) | 5.08 µM (inactive) | 1.92 µM (inactive) | 5.13 µM (inactive) | – | 16.1 µM (inactive) | 13.4 µM (inactive) | 3.77 µM (inactive) | 4.18 µM (inactive) | 2.48 µM (inactive) | 7.67 µM (inactive) | 9.66 µM (inactive) | 3.8 µM (inactive) | 5.56 µM (inactive) | 4.06 µM (inactive) | 6.43 µM (inactive) | 0.91 µM (active) | 18.8 µM (inactive) | –
CC(=O)Nc1ccc2c(c1)C(=O)c1ccccc1-2 | > 100 µM (inactive) | > 100 µM (inactive) | > 100 µM (inactive) | > 100 µM (inactive) | > 100 µM (inactive) | > 100 µM (inactive) | > 100 µM (inactive) | > 100 µM (inactive) | > 100 µM (inactive) | – | > 100 µM (inactive) | > 100 µM (inactive) | > 100 µM (inactive) | > 100 µM (inactive) | > 100 µM (inactive) | > 100 µM (inactive) | > 100 µM (inactive) | > 100 µM (inactive) | > 100 µM (inactive)
